B1: human SLC17A9 (Homo sapiens; N228S) (protein)
chain: MTLTSRRQDSQEARPECQAWTGTLLLGTCLLYCARSSMPICTVSMSQDFGWNKKEAGIVLSSFFWGYCLTQVVGGHLGDRIGGEKVILLSASAWGSITAVTPLLAHLSSAHLAFMTFSRILMGLLQGVYFPALTSLLSQKVRESERAFTYSIVGAGSQFGTLLTGAVGSLLLEWYGWQSIFYFSGGLTLLWVWYVYRYLLSEKDLILALGVLAQSRPVSRHSRVPWRRLFRKPAVWAAVVSQLSAACSFFILLSWLPTFFEETFPDAKGWIFNVVPWLVAIPASLFSGFLSDHLINQGYRAITVRKLMQGMGLGLSSVFALCLGHTSSFCESVVFASASIGLQTFNHSGISVNIQDLAPSCAGFLFGVANTAGALAGVVGVCLGGYLMETTGSWTCLFNLVAIISNLGLCTFLVFGQAQRVDLSSTHEDL
B2: mouse SLC17A9 (mSLC17A9) (Mus musculus) (protein)
chain: MPSQRSSLMQPIPEETRKTPSAAAEDTRWSRPECQAWTGILLLGTCLLYCARVTMPVCTVAMSQDFGWNKKEAGIVLSSFFWGYCLTQVVGGHLGDRIGGEKVILLSASAWGFITVTTPLLAHLGSGHLAFLTFSRILTGLLQGVYFPALTSLLSQKVQESERAFTYSTVGAGSQVGTLVTGGVGSVLLDQCGWQSVFYFSGGLTLLWAYYVYRYLLNEKDLVLALGFLAQGLPVTKPSKVPWRQLFRKASVWAAICSQLCSACSFFILLSWLPTFFKETFPNSKGWVFNVVPWMLAIPASLFSGFISDRLISQGYRVITVRKFMQVMGLGLSSIFALCLGHTTSFLKAMIFASASIGFQTFNHSGISVNIQDLAPSCAGFLFGVANTAGALAGVVGVCLSGYLIETTGSWTCVFHLVAIISNLGLGTFLVFGKAQRVDLVPTHEDL

Assays:
SLC17A9 mRNA = assay: Knockdown of SLC17A9 by RNAi, SLC17A9 mRNA by real-time PCR; type: cell-based; conditions: 25 nM rat SLC17A9 siRNA, cultured 3 days, versus control siRNA, FIG. 19(A)
Description: (§1) Knockdown of SLC17A9 by RNAi was carried out as follows. A sequence for RNAi designed by Qiagen HP OnGuard siRNA Design was used. The nucleic acid sequence of the RNAi used was […] (SEQ ID NO: 15). This sequence and HiPerFect transfection reagent (Qiagen) were used for transfection of 25 nM AllStars negative control siRNA or 25 nM rat SLC17A9 siRNA, and the resultant was cultured for 3 days, to thereby perform knockdown of SLC17A9. […] The amounts of SCL17A9 mRNA in the knocked-down cells (RNAi) and control cells (control) were measured by real-time PCR, and as shown in FIG. 19(A), the amount of SLC17A9 mRNA was decreased by RNAi.

PC12 cells = assay: KCl-dependent ATP release after SLC17A9 knockdown; type: cell-based, rat; conditions: 25 nM siRNA, 3 days, KCl stimulus 30 minutes, FIG. 19(B)
Description: as §1

human SLC17A9 = target: T1, human SLC17A9 (Homo sapiens, UniProt Q9BYT1, N228S); assay: Nucleotide transport by human SLC17A9 reconstituted proteoliposomes (valinomycin-induced membrane potential, radiolabelled substrate); type: biochemical; conditions: for uptake of ADP and GTP into SLC17A9 reconstituted proteoliposomes over time: 100 μM each, FIG. 16; for effect of nucleotides on ATP transport: nucleotide 1 mM, FIG. 15
T1 construct: His6 (from pDEST10 vector); made in house; host or cells: insect cells, baculovirus system (Sf9 named for virus production)
T1 sequence (Q9BYT1 1-430 isoform Q9BYT1-2 N222S): B1 chain
Description: 10 μg of purified SLC17A9 and 0.5 mg of soybean-derived lipids were mixed and incubated at −80° C. for 5 minutes or more. The mixture was thawed quickly by holding the tube in the hands, and was diluted 60-fold with a buffer solution containing 20 mM MOPS-Tris (pH 7.0), 0.15M sodium acetate, 2 mM magnesium acetate and 0.5 mM DTT. This dilution was centrifuged at 200,000×g at 4° C. for one hour, the supernatant was discarded, and the precipitate was resuspended in a buffer solution containing 20 mM MOPS-Tris (pH 7.0), 0.15M sodium acetate, 2 mM magnesium acetate and 0.5 mM DTT, to obtain SLC17A9 reconstituted proteoliposomes. As a control, liposomes without SLC17A9 were used.
The nucleotide transport activity was measured by the following procedure. The reconstituted proteoliposomes were incubated in a buffer solution containing 20 mM MOPS-Tris (pH 7.0), 0.15M potassium acetate, 2 mM magnesium acetate and 4 mM potassium chloride, at 27° C. for 2 minutes, and valinomycin was added thereto to a final concentration of 2 μM. The mixture was incubated for further 2 minutes. The point of addition of 0.1 mM [α-^32P]ATP (3.7 GBq/mmol) was defined as the initiation of activity measurement. At a predetermined time point, 130 μL of the reaction liquid was recovered and centrifuged through a Sephadex G-50 (fine) spin column at 760×g for 2 minutes. The uptake of ATP was measured by measuring the radioactivity included in the reaction liquid that had passed through the column using a liquid scintillation counter. In the measurement of the transport activity for ADP and GTP, [2,8-^3H]ADP (0.37 GBq/mmol) and [α-^32P]GTP (3.7 GBq/mmol) were used instead of ATP as the substrate.
In an experiment for an inhibitor, a predetermined concentration of an inhibitor was added upon incubation of the proteoliposomes.

mouse SLC17A9 (mSLC17A9) = target: T2, mouse SLC17A9 (mSLC17A9) (Mus musculus, UniProt Q8VCL5); assay: ATP transport by reconstituted mSLC17A9 protein proteoliposomes; type: biochemical; conditions: added at 2 mM, uptake for 2 minutes, FIG. 22
T2 construct: His6 (from pDEST10 vector) (N); made in house; host or cells: insect cells, baculovirus system (Sf9 named for virus production)
T2 sequence (Q8VCL5 1-447): B2 chain
Description: 20 μg of the purified mSLC17A9 protein and 0.5 mg of soybean-derived lipids were mixed, and the mixture was incubated at −80° C. for 5 minutes or longer. This mixture was thawed quickly by holding the tube in the hands, and was diluted 30-fold with a buffer solution containing 20 mM MOPS-Tris (pH 7.0), 0.15M sodium acetate, 2 mM magnesium acetate and 0.5 mM DTT. This dilution was centrifuged at 200,000×g at 4° C. for one hour, the supernatant was discarded, and the precipitate was resuspended in a buffer solution containing 20 mM MOPS-Tris (pH 7.0), 0.15M sodium acetate, 2 mM magnesium acetate and 0.5 mM DTT, to achieve reconstitution. […] The mixture was further incubated for 2 minutes. […] Furthermore, in an inhibitor test, an inhibitor at a predetermined concentration was added in the case of incubating the proteoliposomes.

[1] = substrate: Nc1ncnc2c1ncn2[C@@H]1O[C@H](COP(=O)(O)OP(=O)(O)OP(=O)(O)O)[C@@H](O)[C@H]1O; assay: cells, lysate or membranes named; conditions: other: human SLC17A9 proteoliposomes, ATP uptake at various concentrations; pH 7.0; 27.0 °C
[2] = substrate: Nc1ncnc2c1ncn2[C@@H]1O[C@H](COP(=O)(O)OP(=O)(O)OP(=O)(O)O)[C@@H](O)[C@H]1O; assay: purified protein, by the assay type; conditions: other: reconstituted mSLC17A9, membrane potential-dependent transport, calculated using KaleidaGraph; pH 7.0; 27.0 °C

Molecule | uptake of ADP and GTP into SLC17A9 reconstituted proteoliposomes over time (human SLC17A9) | effect of nucleotides on ATP transport (human SLC17A9) | inhibition of radioactive ATP uptake (mouse SLC17A9 (mSLC17A9)) | other results
SLC17A9 RNAi: RNAi of sequence UAUUCGAGAGAAUGUCACG (SEQ ID NO: 15) for knockdown of SLC17A9 (listed as RNA, chemistry not given here) | – | – | – | amount of SLC17A9 mRNA (SLC17A9 mRNA): decreased; KCl-dependent ATP release (PC12 cells): suppressed
Nc1nc2c(ncn2[C@@H]2O[C@H](COP(=O)(O)OP(=O)(O)OP(=O)(O)O)[C@@H](O)[C@H]2O)c(=O)[nH]1 [GTP] | actually taken up | recognized as transport substrates | compete with ATP | –
Nc1ncnc2c1ncn2[C@@H]1O[C@H](COP(=O)(O)OP(=O)(O)O)[C@@H](O)[C@H]1O [ADP, adenosine diphosphate] | actually taken up | recognized as transport substrates | compete with ATP | –
B1 | – | – | – | Km [1]: 800 µM
B2 | – | – | – | Km [2]: 230 µM; Vmax [2]: 23.8 nmol/min/mg of protein

Reference: US7951595B2, “Methods for screening modulators of SLC17-type anion transport activity” (National University Corporation Okayama University, priority 2007, dated 2011)
